Among the test systems are A549 NSCLC; NCI-H460 lung; NCI-H522 lung; SW-620 colon; OVCAR-4 ovarian; HL-60(TB) leukemia; OVCAR-8 ovarian; NCI-H23 lung; A498 renal; UACC-62 melanoma.
Common to all, as to test: growth of human tumour cells (NCI), 48 h

Molecules are shown by their SMILES.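 In this assay, cells in 96-well plates receive the compound at five concentrations for 48 hours. Endpoints are linearly interpolated between the surrounding concentrations. TGI: total growth inhibition.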

Take `COc1ccccc1NC(=O)C(=O)C(c1cnc2ccc([N+](=O)[O-])cc2n1)[N+](=O)[O-]` (stereo not given): the TGI in the experiment with A549 NSCLC, in the experiment with NCI-H460 lung, in the experiment with NCI-H522 lung, in the experiment on SW-620 colon, in the experiment on OVCAR-4 ovarian and with HL-60(TB) leukemia was greater than 100 µM each time. For the same molecule, the TGI in the experiment on OVCAR-8 ovarian, with NCI-H23 lung, in the experiment with A498 renal and with UACC-62 melanoma was greater than 100 µM in each case.
Consider `O=C(N/N=C\c1ccc(Cl)cc1)Nc1cccc2ccccc12`, for which the TGI in the experiment on A549 NSCLC is 27 µM; in the experiment with NCI-H460 lung it was 10.2 µM; with NCI-H522 lung it was greater than 31.5 µM; with SW-620 colon, greater than 76.6 µM; in the experiment with OVCAR-4 ovarian, 6.84 µM; in the experiment on HL-60(TB) leukemia, 27.1 µM. Moreover, the TGI in the experiment with OVCAR-8 ovarian was greater than 40.8 µM; in the experiment on NCI-H23 lung, 98.9 µM; in the experiment on A498 renal it was 7.13 µM; with UACC-62 melanoma, greater than 100 µM.
On to `CCOC(=O)C12CCC(c3c(C)cccc3C)(O1)C(C(=O)OC)=C2C(=O)OC` (stereo not given), for which the TGI in the experiment with A549 NSCLC is greater than 10 µM; with NCI-H460 lung, greater than 10 µM; in the experiment on NCI-H522 lung, greater than 10 µM; in the experiment on SW-620 colon it was greater than 10 µM; in the experiment with OVCAR-4 ovarian it was greater than 10 µM; in the experiment on HL-60(TB) leukemia, greater than 7.4 µM. Further, the TGI was greater than 10 µM in the experiment with OVCAR-8 ovarian, greater than 8.69 µM in the experiment with NCI-H23 lung, 7 µM in the experiment with A498 renal and greater than 10 µM in the experiment on UACC-62 melanoma.
Take `CC1=C(N2CC2)C(=O)C(C)=C(N2CC2)C1=O`: the TGI with A549 NSCLC is 75.7 µM; with NCI-H460 lung it was 0.634 µM; in the experiment on NCI-H522 lung it was 0.423 µM; with SW-620 colon, 3.41 µM; in the experiment on OVCAR-4 ovarian it was 2.02 µM; in the experiment with HL-60(TB) leukemia, 1.04 µM. For the same molecule, the TGI is 2.3 µM with OVCAR-8 ovarian, 0.19 µM in the experiment with NCI-H23 lung, 0.403 µM in the experiment with A498 renal and 0.466 µM with UACC-62 melanoma.
Regarding `O=[N+]([O-])c1ccc(C2NC(=S)NC3c4cc([N+](=O)[O-])ccc4CCCC23)cc1` (stereo not given), the TGI in the experiment with A549 NSCLC, with NCI-H460 lung, with NCI-H522 lung, in the experiment with SW-620 colon, with OVCAR-4 ovarian and in the experiment on HL-60(TB) leukemia was greater than 100 µM in each case. Besides, the TGI with OVCAR-8 ovarian, in the experiment on NCI-H23 lung, in the experiment on A498 renal and with UACC-62 melanoma was greater than 100 µM each time.
Take `Clc1ccc2c(c1)CC1C[N+]3=C(CCCCC3)C1=C2` (stereo not given): the TGI with A549 NSCLC, in the experiment on NCI-H460 lung, in the experiment with NCI-H522 lung, in the experiment on SW-620 colon, in the experiment on OVCAR-4 ovarian and in the experiment on HL-60(TB) leukemia was greater than 100 µM in each case. The TGI in the experiment with OVCAR-8 ovarian, with NCI-H23 lung, in the experiment on A498 renal and in the experiment on UACC-62 melanoma was greater than 100 µM each time.
`Cc1nnc(N)nc1C/C=C/C(C)Sc1ccc(Cl)cc1` (stereo not given): the TGI in the experiment with A549 NSCLC was 58.6 µM; in the experiment with NCI-H460 lung it was 30.3 µM; with NCI-H522 lung, 16.1 µM; with SW-620 colon it was greater than 48 µM; in the experiment on OVCAR-4 ovarian it was 48 µM; with HL-60(TB) leukemia it was 10.1 µM. Besides, the TGI in the experiment with OVCAR-8 ovarian was greater than 56.5 µM; in the experiment on NCI-H23 lung it was 36 µM; in the experiment with A498 renal, 25.9 µM; in the experiment on UACC-62 melanoma, 17.8 µM.
On to `Cc1cc(S(=O)(=O)Nc2nnc3c(Cl)cc(C(F)(F)F)cn23)c(S)cc1Cl`, for which the TGI in the experiment on A549 NSCLC, with NCI-H460 lung, in the experiment on NCI-H522 lung, with SW-620 colon, in the experiment on OVCAR-4 ovarian and in the experiment with HL-60(TB) leukemia was greater than 100 µM each time. The TGI in the experiment on OVCAR-8 ovarian, with NCI-H23 lung, with A498 renal and with UACC-62 melanoma was greater than 100 µM throughout.
For `COc1ccc(OC)c(CCc2ccccc2CC(=O)O)c1`, the TGI with A549 NSCLC, in the experiment on NCI-H460 lung, in the experiment on NCI-H522 lung, in the experiment on SW-620 colon, with OVCAR-4 ovarian and in the experiment with HL-60(TB) leukemia was greater than 100 µM in each case. Besides, the TGI in the experiment on OVCAR-8 ovarian, with NCI-H23 lung, in the experiment on A498 renal and in the experiment on UACC-62 melanoma was greater than 100 µM each time.
Consider `CC1=NC(=O)CNN1C1=NNC2(C(=O)N1)c1ccccc1-c1ccccc12`, for which the TGI in the experiment with A549 NSCLC, in the experiment on NCI-H460 lung, in the experiment on NCI-H522 lung, in the experiment on SW-620 colon, with OVCAR-4 ovarian and in the experiment on HL-60(TB) leukemia was greater than 100 µM each time. Further, the TGI in the experiment on OVCAR-8 ovarian, with NCI-H23 lung, with A498 renal and in the experiment with UACC-62 melanoma was greater than 100 µM in each case.
In the case of `CC(C)NC(=O)OCc1c(COC(=O)NC(C)C)c(-c2cc[n+](COC(=O)Cc3ccccc3)cc2)n2c1CCC2`, the TGI in the experiment on A549 NSCLC, in the experiment with NCI-H460 lung, with NCI-H522 lung, with SW-620 colon, with OVCAR-4 ovarian and in the experiment on HL-60(TB) leukemia was greater than 100 µM throughout. For the same molecule, the TGI in the experiment with OVCAR-8 ovarian, with NCI-H23 lung, with A498 renal and with UACC-62 melanoma was greater than 100 µM in each case.
For the molecule `COc1ccc(C(SCCO)(c2ccc(OC)cc2)c2ccc(OC)cc2)cc1`, the TGI is 69.3 µM with A549 NSCLC; 35.8 µM in the experiment with NCI-H460 lung; 28.2 µM in the experiment on NCI-H522 lung; 81.1 µM in the experiment with SW-620 colon; greater than 100 µM in the experiment with OVCAR-4 ovarian; 87.7 µM in the experiment with HL-60(TB) leukemia. Besides, the TGI in the experiment with OVCAR-8 ovarian was 37.7 µM; with NCI-H23 lung, 45.2 µM; in the experiment with A498 renal, 40.1 µM; in the experiment on UACC-62 melanoma, 30.1 µM.
Consider `CC(=O)OC1CC2C(=O)CC1(C)C2(C)C` (stereo not given), for which the TGI in the experiment with A549 NSCLC, with NCI-H460 lung, in the experiment on NCI-H522 lung, in the experiment on SW-620 colon, in the experiment on OVCAR-4 ovarian and in the experiment on HL-60(TB) leukemia was greater than 100 µM in each case. Also, the TGI with OVCAR-8 ovarian, with NCI-H23 lung, in the experiment with A498 renal and in the experiment on UACC-62 melanoma was greater than 100 µM in each case.
As to `COc1ccc2nc3c([N+](=O)[O-])ccc4c3c(c2c1)N=CN4CCN(C)C`, the TGI with A549 NSCLC is 19.2 µM; in the experiment with NCI-H460 lung it was greater than 34.1 µM; in the experiment on NCI-H522 lung, 9.68 µM; with SW-620 colon it was greater than 42.6 µM; with OVCAR-4 ovarian, 34.9 µM; with HL-60(TB) leukemia, 0.616 µM. Also, the TGI is 19.3 µM in the experiment with OVCAR-8 ovarian, 21.1 µM with NCI-H23 lung, 15.4 µM in the experiment with A498 renal and 27.4 µM with UACC-62 melanoma.
Regarding `COc1cc2c(c(OC)c1)C(=O)C(=O)C(CC1(C)OCCCO1)=C2`, the TGI in the experiment on A549 NSCLC amounted to 28.3 µM; in the experiment with NCI-H460 lung it was 26.6 µM; with NCI-H522 lung, 2.7 µM; with SW-620 colon, 3.23 µM; in the experiment on OVCAR-4 ovarian, 18.9 µM; with HL-60(TB) leukemia it was 4.28 µM. Also, the TGI was found to be 28.6 µM with OVCAR-8 ovarian, 24.3 µM in the experiment on NCI-H23 lung, 31.3 µM with A498 renal and 20.2 µM in the experiment with UACC-62 melanoma.
In the case of `N#CCCN(c1ccc(C=Nc2ccc(C(=O)O)cc2)cc1)S(=O)(=O)c1ccccc1`, the TGI in the experiment with A549 NSCLC, in the experiment with NCI-H460 lung, in the experiment with NCI-H522 lung, in the experiment on SW-620 colon, in the experiment with OVCAR-4 ovarian and in the experiment on HL-60(TB) leukemia was greater than 100 µM each time. For the same molecule, the TGI in the experiment on OVCAR-8 ovarian, with NCI-H23 lung, in the experiment with A498 renal and in the experiment on UACC-62 melanoma was greater than 100 µM throughout.
For the molecule `Nc1n[nH]c(N)n1`, the TGI in the experiment with A549 NSCLC was greater than 10000 µM; with NCI-H460 lung, 8220 µM; in the experiment with NCI-H522 lung, 4640 µM; with SW-620 colon, greater than 10000 µM; in the experiment on OVCAR-4 ovarian, greater than 10000 µM; in the experiment with HL-60(TB) leukemia, 7060 µM. Moreover, the TGI was greater than 10000 µM with OVCAR-8 ovarian, greater than 9700 µM in the experiment with NCI-H23 lung, greater than 10000 µM in the experiment on A498 renal and 7470 µM in the experiment on UACC-62 melanoma.
As for `CCOC(=O)CN1C(=O)c2c(NC(=O)C(=O)O)cccc2S1(=O)=O`, the TGI with A549 NSCLC, in the experiment on NCI-H460 lung, in the experiment with NCI-H522 lung, in the experiment on SW-620 colon, in the experiment on OVCAR-4 ovarian and with HL-60(TB) leukemia was greater than 100 µM throughout. Besides, the TGI in the experiment with OVCAR-8 ovarian, with NCI-H23 lung, in the experiment with A498 renal and in the experiment on UACC-62 melanoma was greater than 100 µM in each case.
